# Results: PubChem BioAssay AID463074 (Broad Institute, 2010)
# Active and inactive are the calls of the source.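 The calls were made as follows: active = AC50 no more than tenfold above the top dose tested, or full inhibition at every dose with a flat fit (cut at about 19 µM in these data); inconclusive = flat curve fit with inhibition between 30% and 70%, or poor fit; inactive = AC50 more than tenfold above the top dose tested.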
# Test system: HMLE_sh_eGFP viability, CellTiter-Glo luminescence, 72 h
# Test: viability loss of HMLE_sh_eGFP cells – cell-based, luminescence, counter-screen for HMLE_sh_ECad selective toxicity project, dose response (AID 463074);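 also: counterscreen control line to flag general toxicity for the HMLE_sh_ECad screen; potency for loss of viability as luminescence drops below DMSO wells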
row,Compound,AC50
1,Cc1cc(C(C)(C)C)c(OC(=O)[C@@H]2OC(c3ccccc3)=C[C@H]2c2ccccc2)c(C(C)(C)C)c1,7.77 µM
2,Brc1ccc2[nH]c3c(N4CCc5ccccc5C4)ncnc3c2c1,17.3 µM
3,Cc1cccc(-c2nc(Nc3cccc(O)c3)c3ccccc3n2)c1,5.27 µM
4,Cc1ccc(C(C)C)c(OCc2ccc(C(=O)N/N=C/c3ccc(O)c(O)c3)cc2)c1,4.66 µM
5,COc1ccc(NS(=O)(=O)c2cccc(C(=O)N/N=C(\C)c3ccc(-n4ccnc4)cc3)c2)cc1,> 19.5 µM (inactive)
6,Cc1ccccc1N1CCN(C(=O)c2ccc(Oc3ccc(C(F)(F)F)cn3)cc2)CC1,4.66 µM
7,O=C(/C=C/c1c(F)cccc1Cl)c1ccc(O)cc1,7.97 µM
8,COc1cc(CNCCc2c[nH]c3ccccc23)ccc1OCc1ccc(F)cc1,4.2 µM
9,O=C(CN1CCCC1)Nc1ccc(Cl)cc1C(=O)c1ccccc1,15.3 µM
10,CCN(Cc1ccccc1)c1ccc(/C=N/NC(=S)NC(C)C)cc1,4.6 µM
11,O=C(COc1ccccc1-c1ccccc1)N/N=C/c1cccc2ccccc12,0.608 µM
12,COc1cc(OC)cc(-c2sc3ccc(OC)cc3c2-c2ccc3cc[nH]c3c2)c1,3.34 µM
13,O=c1cc(N2CCCCC2)c(-c2ccccc2)nn1Cc1c(Cl)cccc1Cl,5.72 µM
14,Cc1c(C(=O)Nc2ccc(-c3nnc4n3CCCCC4)cc2)oc2c1ccc1ccccc12,5.66 µM
15,COc1ccc(-c2oc3c4c(cc(OC)c3c(=O)c2CC=C(C)C)OC(C)(C)C=C4)c(OC)c1,7.18 µM
16,O=C(CN(c1cccc(C(F)(F)F)c1)S(=O)(=O)c1ccc(Cl)c([N+](=O)[O-])c1)NCc1ccccc1Cl,2.6 µM
17,Cc1nn(-c2ccccc2)c2nc(N)c(C#N)c(-c3ccc(C(C)(C)C)cc3)c12,3.24 µM
18,C=CCc1cccc(/C=N/NC(=O)c2ccc3nc[nH]c3c2)c1O,6.2 µM
19,CC(C)(C)c1ccc(Oc2ccc(NC(=O)c3cccs3)cn2)cc1,2.88 µM
20,CC1CCN(CC(CS(=O)(=O)c2ccc([N+](=O)[O-])cc2)N2CCC(C)CC2)CC1 (stereo not given),6.58 µM
21,COc1cc(NC(=O)c2cc3ccccc3cc2O)c(OC)cc1Cl,1.17 µM
22,CCOC(=O)C(=Cc1ccc(-n2cncn2)cc1)C(=O)OCC,6.4 µM
23,Cc1ccc(NC(=O)c2ccc(Cl)c(N3C(=O)C=CC3=O)c2)cc1,8.19 µM
24,CCCCOc1ccc(S(=O)(=O)N2CCN(c3ccc(N4CCN(CC)CC4)nn3)CC2)cc1,0.46 µM
25,C=CCNc1ncnc2c1ncn2C1OC(CO)C(O)C1O (stereo not given),4.39 µM
26,S=C(Nc1ccc(Oc2ccccc2)cc1)NC1CCCCCC1,4.84 µM
27,CC(C)(C)OC(=O)[C@H](Cc1ccccc1)NC(=O)c1[nH]cnc1C(=O)Nc1cccc(Cl)c1,3.93 µM

row,Compound,AC50
1,C[C@@H]1CC[C@]2(C(=O)O)CC[C@]3(C)C(=CCC4[C@]56CC[C@@](O)(OC5)C(C)(C)C6CC[C@]43C)C2[C@H]1C (stereo not given in full),6.19 µM
2,Cc1cc(C(=O)NNc2ccc(F)cc2)no1,1.68 µM
3,CCN(c1ccc(NC(=O)CCc2nc3sc4c(c3c(=O)[nH]2)CCCC4)cc1)C(C)C,9.45 µM
4,CC(=O)Nc1ccc(SCC(=O)c2cc(C)n(-c3ccccc3)c2C)cc1,13.3 µM
5,O=C1C=C(c2ccc(F)cc2OCc2ccccc2)C[C@@H](c2ccc(F)cc2)C1,2.25 µM
6,C=CCNCCCOc1ccc(Cl)cc1C(C)(C)C,14.9 µM
7,CC(C)(C)NC(=O)Cn1nnc(-c2ccc(OCc3c(F)cccc3Cl)cc2)n1,1.79 µM
8,NC(=O)CC(NC(=O)c1ccc(Br)cc1)c1ccc(N2CCCCCC2)c([N+](=O)[O-])c1 (stereo not given),19.6 µM
9,CCN(CC)S(=O)(=O)c1cccc(NC(=O)Nc2cccc(C(F)(F)F)c2)c1,3.56 µM
10,S=c1[nH]nc(-c2cc(-c3ccccc3)n[nH]2)n1/N=C/C(Br)=C/c1ccccc1,1.2 µM
11,COc1ccccc1-c1cc(C(F)(F)F)nc(S(C)(=O)=O)n1,6.13 µM
12,CCC(=O)NNc1ccc(Br)cc1,6.69 µM
13,COC(=O)Nc1ccc(S(=O)(=O)N2CCCc3ccccc32)cc1,2.21 µM
14,COc1ccc(-c2sc3ccccc3c2-c2ccc(OCCN3CCOCC3)cc2)cc1,1.51 µM
15,Clc1ccc(N/N=C/c2cccnc2)cc1,7.94 µM
16,COc1ccc(-c2sc3ccc(OC)cc3c2C#CCCO)cc1,7.27 µM
17,O=c1c(Cl)c(NCc2ccc(F)cc2)cnn1C12CC3CC(CC(C3)C1)C2,2.15 µM
18,O=C(/C=C/c1ccc2c(c1)OCO2)c1c(O)n(CCC2=CCCCC2)c(=O)[nH]c1=O,1.63 µM
19,COc1cc(NC2CCCCC2O)c2nc(-c3ccc(Cl)cc3)ccc2c1 (stereo not given),5.65 µM
20,O=C1C=C(c2ccc(Cl)c(C(F)(F)F)c2)C[C@@H](c2ccc(Cl)cc2)C1,3.52 µM
21,CC[C@@H]1CC=C[C@H]2[C@H]1C(=O)N(Cc1ccccc1)[C@H]2c1ccoc1,7.03 µM
22,Cc1ccc(F)c([C@H]2C3C=CCC(c4ccccc4)C3C(=O)N2Cc2ccccc2)c1 (stereo not given in full),6.52 µM
23,CCOC(=O)/C(C#N)=C1\Nc2ccccc2N=C1N(CC(C)C)CC(C)C,8.73 µM
24,Cc1cccc(N/N=C/c2ccccc2O)c1,18.6 µM
25,Cc1cccc(-n2ncc3c(N4CCCc5ccccc54)ncnc32)c1,7.68 µM
26,Fc1ccc(NC(=S)Nc2cc(-c3ccccc3)[nH]n2)cc1Cl,3.46 µM
27,O=c1c2ccccc2oc2ccc(C#CC3(O)CCCCC3)cc12,7.11 µM

row,Compound,AC50
1,Cc1csc(N/N=C/c2ccccn2)n1,11 µM
2,Cc1ccc(-n2nc(C)c3c(C)c(CCC(=O)Nc4ccc(CN5CCCC5)cc4)c(C)nc32)cc1,3.79 µM
3,CCCCc1ccc(N=N/C(C(=O)Nc2ccc(NC(C)=O)cc2OC)=C(/C)O)cc1,17.7 µM
4,Cc1cc(N2C(=O)C=CC2=O)c([N+](=O)[O-])cc1C,5.88 µM
5,CCOc1cc(/C=C2/SC(=S)N(Cc3ccccc3)C2=O)ccc1O,3.76 µM
6,CC(/C=C1\SC(=O)N(CC(=O)Nc2cccc(O)c2)C1=O)=C\c1ccccc1,13.6 µM
7,CCC1CSC(Nc2ccc(C(=O)/C=C/c3ccc(Br)cc3)cc2)=N1 (stereo not given),5.68 µM
8,COc1ccc(/C=N/NC(=O)CCn2cnc(-c3ccccc3)c2-c2ccccc2)cc1OC,0.922 µM
9,COc1ccc(Cn2c3ccc(OC)cc3c3nc4ccccc4nc32)cc1,17.8 µM
10,COc1ccc2nc(N=Nc3ccc(O)c4ccccc34)sc2c1,3.27 µM
11,COc1cccc(/C=C/c2ccc3ccccc3n2)c1OC(C)=O,11.7 µM
12,CCC(C)n1c(O)c(/C=N/Nc2ccccc2)c(=O)[nH]c1=S (stereo not given),3.58 µM
13,O=C(Nc1nccs1)c1ccc(COc2ccccc2Br)o1,4.84 µM
14,O=C(Nc1ccc(OC(F)F)c(Cl)c1)Nc1ccc2c(c1)OCO2,3.14 µM
15,Cc1cccc(NC(=O)c2nc[nH]c2C(=O)NCCCNC(=O)c2[nH]cnc2C(=O)Nc2cccc(C)c2)c1,6.71 µM
16,O=S(=O)(Nc1ccc(-c2csc(-c3ccccc3)n2)cc1)c1ccccc1,5.92 µM
17,c1ccc(-c2sc3ccccc3c2-c2ccc(OCCN3CCOCC3)cc2)cc1,3.24 µM
18,CCOC(=O)c1[nH]c(C)c(C(=O)OCc2ccccc2F)c1C,1.03 µM
19,Cc1cccc(C)c1NS(=O)(=O)c1ccc(NC(=O)c2ccc(Cl)c([N+](=O)[O-])c2)cc1,3.66 µM
20,Cc1ccc(Cl)cc1NC(=S)N/N=C/c1cccc2ccccc12,0.298 µM
21,CCn1c(C(=O)O)c(CC(=O)Nc2cccc(C(F)(F)F)c2)c2ccccc21,14.6 µM
22,COc1ccc(C(=O)/C=C/c2cc(OC)c(O)c(OC)c2)c(F)c1,12.3 µM
23,O=C1C2C(c3ccccc3)CC=CC2[C@H](c2ccc(C(F)(F)F)cc2)N1Cc1ccccc1 (stereo not given in full),5.89 µM
24,CC1CCCN(CCCOc2ccc(Br)cc2Cl)C1 (stereo not given),8.36 µM
25,Cc1ccc(N/N=C/c2cccnc2)cc1,6.14 µM
26,C=C[C@@H]1c2cccc(C)c2N(S(=O)(=O)c2ccc(C)cc2)[C@H](c2ccc(OC(C)=O)cc2)C1(C#N)C#N,6.71 µM
